Laboratory results from US20100249138A1, “MPZP: A SMALL MOLECULE CORTICOTROPIN-RELEASING FACTOR TYPE 1 RECEPTOR (CRF1) ANTOGONIST” (priority 2007, published 2010).
Entries after “also recorded” stand apart in the source; their conditions may differ.

How the values were obtained:
[1] = tested on: nicotine self-administration; assay: Nicotine self-administration, extended (23 hour) or limited (1 hour) access, nicotine deprivation effect; assay type: in vivo, rat
Description: The apparatus and detailed procedures for both intravenous catheterization and self-administration of nicotine have been described previously [O'dell et al., Pharmacol. Biochem. Behay. (2007) 86:346-353]. Adult male Wistar rats (280 to 330 g) were first allowed to nose-poke for food and water in 23 hours sessions prior to and after recovery from surgical implantation of jugular catheters. Following acquisition of these operant responses, rats were allowed to self-administer nicotine (0.03 mg/kg/100 μl/1 s, free base, fixed ratio=1 lever-response, time out=20 seconds) under different paradigms. Rats were allowed to acquire nicotine self-administration during daily 1 hour, “short-access” sessions (ShA, n=10) for at least 10 days. The CRF1 antagonist MPZP (0, 5, 10, 20 mg/kg) was then administered using a Latin square design, with 1-2 intervening treatment-free days. After completion of Study B, rats were allowed to self-administer nicotine during daily 23 hours, “long-access” sessions (LgA, n=8) for at least 10 days. Then, they were allowed to respond on a lever for nicotine self-administration in 4 four-day cycles, each separated by three intervening days of abstinence in their home cage. MPZP was administered before the first session following each cycle of abstinence using a Latin square design.

CRF1 receptors = biological target: T1, CRF1 receptors (Rattus norvegicus, UniProt P35353); assay: [125I]-Tyr0-sauvagine competition binding, rat cerebellar membrane homogenates; design: from tissue; host or cells: rat cerebellum, membrane homogenate; conditions: read-out: IC50, displacement of specific [125I]-Tyr0-sauvagine binding
T1 sequence (P35353 24-415): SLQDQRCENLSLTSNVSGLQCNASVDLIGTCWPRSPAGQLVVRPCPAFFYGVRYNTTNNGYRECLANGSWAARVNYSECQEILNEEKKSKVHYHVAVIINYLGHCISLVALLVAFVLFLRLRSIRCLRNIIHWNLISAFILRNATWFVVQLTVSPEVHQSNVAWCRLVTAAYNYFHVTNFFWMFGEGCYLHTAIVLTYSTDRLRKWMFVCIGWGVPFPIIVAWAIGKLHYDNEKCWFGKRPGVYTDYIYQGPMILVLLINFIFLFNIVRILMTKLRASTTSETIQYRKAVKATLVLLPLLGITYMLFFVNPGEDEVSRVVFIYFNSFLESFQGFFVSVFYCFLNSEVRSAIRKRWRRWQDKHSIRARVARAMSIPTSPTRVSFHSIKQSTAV
Description: Binding activity of MPZP was determined in a competition assay using […] (2200 Ci/mmol; Perkin Elmer, Waltham, Mass.) as the radioligand. Cerebellum was homogenized in homogenizing buffer (Dulbecco's phosphate-buffered saline [PBS]:1.5 mM KH2PO4, 8.1 mM Na2HPO4, 2.7 mM KCl, 138 mM NaCl, pH 7.2, supplemented with 10 mM MgCl2, 2 mM EGTA) using a Polytron (Dispersing and Mixing Technology, Kinematica, Littau-Lucerne, Switzerland) at setting 6 for 2×15 seconds on ice. The homogenate was centrifuged at 45,000×g for 20 minutes at 4° C. The pellet was resuspended and spun at 45,000×g for 20 minutes at 4° C. The final pellet was resuspended in assay buffer (homogenizing buffer supplemented with protease inhibitor; 1 tablet/10 ml; Sigma CAT#58829-20TAB, St. Louis, Mo., pH 7.4) using a Polytron.
Med. Chem. (2000) 8:181-189], whose structural formula is shown below.
Total binding was determined using assay buffer in lieu of a CRF1 antagonist, and nonspecific binding was determined in the presence of 1 μM unlabeled sauvagine. The final radioligand concentration was 0.2 nM, and the reaction was incubated at room temperature for 2 hours. […] The pellet-containing tip was cut off and counted in an automated 10-detector gamma counter (MicroMedic Apex, ICN Biomedical, Costa Mesa, Calif.) at 80% efficiency. […]

## COCCN(CCOC)c1cc(C)nc2c(-c3ccc(OC)cc3C)c(C)nn12 [MPZP, N,N-bis(2-methoxyethyl)-3-(4-methoxy-2-methylphenyl)-2,5-dimethyl-pyrazolo[1,5-a]pyrimidin-7-amine]
[1]; extended access (23 hour), 0, 5, 10, 20 mg/kg s.c., vs vehicle-treated
  nicotine intake following abstinence: dose-dependently decreased
[1]; limited access to nicotine (1 hour), s.c.
  baseline nicotine self-administration responding: had no effect; also recorded: lack of effect
CRF1 receptors
  IC50: 6.1 nM
